Reference: patent US20190000976A1, “Purgative Composition” (CTC BIO, INC., priority 2016, published 2019)

Key:
[1] = Stability of sodium picosulfate in solution alone, with polyethylene glycol 4000 or with sorbitol (content by HPLC, British Pharmacopoeia); type: physicochemical
Protocol: The solution was stored at room temperature, in accelerated condition (40° C., 75%RH), and stress condition (60° C., 75%RH).

[2] = Stability of sodium picosulfate in polyethylene glycol 3350 / sorbitol solution with sodium hydrogencarbonate or sodium citrate, 3 weeks (content by HPLC); type: physicochemical; conditions: by comprising sodium hydrogencarbonate or sodium citrate
Protocol: The solution was stored at room temperature or stress condition (60° C., 75%RH) for 3 weeks. The content of sodium picosulfate was evaluated. The content of sodium picosulfate was determined by ‘Sodium picosulfate powder for oral solution’ test method of British Pharmacopoeia using high performance liquid chromatography.

Content (%) of sodium picosulfate, After 1 week Accelerated condition ([1]; 1 week, accelerated condition (40° C., 75%RH)): 102.2%
Content (%) of sodium picosulfate, After 1 week Room temp. ([1]; 1 week, room temperature): 102.2%
Content (%) of sodium picosulfate, After 1 week Stress condition ([1]; 1 week, stress condition (60° C., 75%RH)): 102.4%
Content (%) of sodium picosulfate, After 2 weeks Room temp. ([1]; 2 weeks, room temperature): 102.4%
Content (%) of sodium picosulfate, After 2 weeks Stress condition ([1]; 2 weeks, stress condition (60° C., 75%RH)): 102.5%
Content (%) of sodium picosulfate, Initial ([1]; Initial, 300 ml solution): 102.4%
Stability of sodium picosulfate (in words) ([1]; when mixed with polyethylene glycol): very unstable
Instability of sodium picosulfate caused by mixing with polyethylene glycol (in words) [2]: improved dramatically
SMILES: O=S(=O)(O)Oc1ccc(C(c2ccc(OS(=O)(=O)O)cc2)c2ccccn2)cc1 [sodium picosulfate]
